“Also recorded” adds a separate entry of the source.

The test system of one data set is CYP450 system. The experiment in a line: Isozyme-specific CYP450 study, overall statement. The data set is classed as in vitro ADME, human. As to conditions: 1 μM. Here is the method:
For this, the activity of CYP1A2, CYP2A6, CYP2B6, CYP2C9, CYP2C19, CYP2D6, and CYP3A4 was assessed after the administration of CKP-25 at 1 μM to determine (a) the oxidative (CYP-mediated) metabolic stability profile in question and (b) the enzyme metabolizing isoforms responsible (the test system consists of recombinant human CYP450 and CYP450 reductase; cytochrome b5 may also be present). Herein, no concentration-dependent effects were reported. […] No product inhibition or mechanism-based inactivation of the CYP450 isoenzymes in question was obtained. […]
Human cytochrome P450 (CYP450) isoenzymes were expressed in Baculosomes obtained from Thermo Fisher Scientific (Waltham, MA, USA). […] Compound CKP-25 was evaluated at a concentration of 1 μM according to our established standard operating procedures and protocols as described previously.[127],[128] The enzymatic activity of various CYP450 isoforms (CYP1A2, CYP2A6, CYP2B6, CYP2C9, CYP2C19, CYP2D6, and CYP3A4) was measured, considering the kinetic model for each isoform. […] Upon the addition of the fluorescent substrate, signal monitoring was performed immediately (within 2 min) using appropriate excitation and emission wavelengths, recorded by an Agilent BioTek Lionheart FX (Winooski, VT, USA). CYP450 inhibition (%) was calculated based on the reaction rates (fluorescence intensity changes per unit time). […]

A short description of data set [1]: Metabolic stability in human liver microsomes. The data set is classed as in vitro ADME. The text has this: CKP-25 was studied for its metabolic stability. In particular, the metabolic stability of a compound can be interpreted using several approaches, as it can be ranked in terms of its intrinsic clearance (CLint) and in vitro t1/2 values or based on parent structure loss during metabolic reactions[96],[97] CLin describes the maximum activity of liver (microsomal proteins or hepatocytes) toward a compound not influenced by other physiological determinants, such as hepatic blood flow and drug binding within the blood matrix and in vitro t1/2 expresses the time for 50% disappearance of the compound. Parent structure loss was our option for metabolic stability data interpretation of CKP-25. Parent structure loss is classified as very slow (<5%), slow (5–19%), moderate (20–50%), fast (50–80%) or very fast (>80%). Such categories have been defined according to set criteria, namely, high metabolism (t1/2 value of <30 min), moderate metabolism (30 min < t1/2 value of <60 min) and low metabolism (t1/2 value of >60 min).[98]−[100]
Metabolic stability was evaluated using pooled human liver microsomes at a 0.5 mg/mL concentration. […] Each test-compound was assessed at a concentration of 1 μM. […] The depletion of test compounds was then profiled, and the residual percentage compared to time zero was determined. The readouts were recorded using a Lionheart FX system from Agilent BioTek (Winooski, VT, USA).
In general terms: Microsomes from liver hold many membrane-bound enzymes, among them those of drug oxidation.

For data set [2], the target named is T1, Spike RBD/ACE2 (19–615) interaction (Severe acute respiratory syndrome coronavirus 2, UniProt P0DTC2).
T1 construct: S protein RBD (aa residues 319–541) of SARS-CoV-2; expressed in transfected cells; host or cells: HEK293T
The experiment in a line: cell-based. The settings on record: HEK-293T, 48 h, read-out: suppression of Spike RBD/ACE2 (19–615) interaction. In kind it is cell-based, SARS-CoV-2.

In data set [3] the test system is SARS-CoV-2. The data set is classed as cell-based.
Data set [4] has as its system SARS-CoV-2. The experiment in a line: microbe, parasite or virus in culture. The data set is classed as cell-based.
The next data set relates to E. coli WP2 uvrA strain. The experiment in a line: Microbial mutagenicity assay (Ames test).

Take `COc1cccc2c1ncn2Cc1ccc2ccccc2c1` [CKP-25, 4-Methoxy-1-(naphthalen-2-ylmethyl)-1H-benzo[d]imidazole]: in the data set with CYP450 system, the “inhibition of the CYP450 system (in words)” value is given as “weak inhibitor”. Further, the “solubility issues in the CYP450 assay” value in the data set with CYP450 system was “No solubility issues”. Also, in data set [1], the “substrate depletion (in words)” value is given as “slow substrate depletion”. Also, the inhibition at 25 µM in data set [2] is 34%. Further, in the data set on SARS-CoV-2 [3], the “reduction of the viral titter (TCID50)” value is “approximately 90%”. Moreover, in the data set on SARS-CoV-2 [4], the “effect on the cytopathic effect of SARS-CoV-2 (in words)” value is reported as “consistently reduced the cytopathic effect”. Moreover, in the data set on SARS-CoV-2 [4] (Severe acute respiratory syndrome coronavirus 2, Vero C1008, 48 h, read-out: IC50, SARS-CoV-2 CPE), the IC50 (usually the concentration that gives 50% inhibition) stood at 3.5 µM. The mean revertants in the data set on E. coli WP2 uvrA strain (2.5 μg/plate, +S9) worked out at 13; in the data set with E. coli WP2 uvrA strain (2.5 μg/plate, –S9), 7.5; in the data set with E. coli WP2 uvrA strain (25 μg/plate, +S9), 19; in the data set on E. coli WP2 uvrA strain (25 μg/plate, –S9) it was 12.5; in the data set with E. coli WP2 uvrA strain (50 μg/plate, +S9), 15; in the data set on E. coli WP2 uvrA strain (50 μg/plate, –S9), 13. Moreover, the mean revertants in the data set on E. coli WP2 uvrA strain (100 μg/plate, +S9) turned out to be 13; in the data set with E. coli WP2 uvrA strain (100 μg/plate, –S9), 11.5; in the data set with E. coli WP2 uvrA strain (200 μg/plate, +S9), 16; in the data set with E. coli WP2 uvrA strain (200 μg/plate, –S9) it was 5.5. Besides, the “mutagenic activity (in words)” value in the data set on E. coli WP2 uvrA strain (12.5 to 200 μg/plate, with and without S9-mix) was “does not elicit mutagenic effect; also recorded: does not exhibit mutagenic activity”.

The record behind these values is publication PMC11600510 (Journal of Chemical Information and Modeling, 2024).
